Source: ChEMBL document CHEMBL3991601, “The target landscape of clinical kinase drugs” (Science, 2017)
Activity calls are given as the source filed them. For most assays here, no stated cut-off is given here; in the data, actives have a measured Kd and inactives only a lower limit.

Columns and labels:
[1] = target: G protein-coupled receptor kinase 6 (Homo sapiens, UniProt P43250)
[2] = target: Tyrosine-protein kinase Lck (Homo sapiens, UniProt P06239)
[3] = target: T1, MAP/microtubule affinity-regulating kinase 4 (Homo sapiens, UniProt Q96L34)
T1 sequence (Q96L34 whole entry): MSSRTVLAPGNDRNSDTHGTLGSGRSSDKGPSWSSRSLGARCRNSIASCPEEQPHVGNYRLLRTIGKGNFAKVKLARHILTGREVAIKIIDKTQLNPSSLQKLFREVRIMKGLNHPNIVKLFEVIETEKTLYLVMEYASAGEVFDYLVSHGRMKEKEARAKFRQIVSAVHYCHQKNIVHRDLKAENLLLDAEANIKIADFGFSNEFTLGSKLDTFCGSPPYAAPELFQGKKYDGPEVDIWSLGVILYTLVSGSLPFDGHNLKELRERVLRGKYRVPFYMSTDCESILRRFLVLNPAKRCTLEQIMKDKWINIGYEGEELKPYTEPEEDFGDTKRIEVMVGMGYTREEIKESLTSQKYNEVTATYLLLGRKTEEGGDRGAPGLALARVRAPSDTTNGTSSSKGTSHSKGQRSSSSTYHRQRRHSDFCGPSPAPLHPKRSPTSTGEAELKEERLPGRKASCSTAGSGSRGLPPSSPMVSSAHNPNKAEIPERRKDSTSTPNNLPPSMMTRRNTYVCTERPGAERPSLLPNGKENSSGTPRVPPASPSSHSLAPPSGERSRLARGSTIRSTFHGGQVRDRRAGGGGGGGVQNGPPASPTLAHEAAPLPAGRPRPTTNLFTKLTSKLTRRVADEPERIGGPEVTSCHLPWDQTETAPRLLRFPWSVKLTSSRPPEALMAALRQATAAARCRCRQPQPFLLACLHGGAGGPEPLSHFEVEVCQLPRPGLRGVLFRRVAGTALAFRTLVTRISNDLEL

[4] = target: Hepatocyte growth factor receptor (Homo sapiens, UniProt P08581)
[5] = target: T2, Eukaryotic translation initiation factor 5B (Homo sapiens, UniProt O60841)
T2 sequence (O60841 whole entry): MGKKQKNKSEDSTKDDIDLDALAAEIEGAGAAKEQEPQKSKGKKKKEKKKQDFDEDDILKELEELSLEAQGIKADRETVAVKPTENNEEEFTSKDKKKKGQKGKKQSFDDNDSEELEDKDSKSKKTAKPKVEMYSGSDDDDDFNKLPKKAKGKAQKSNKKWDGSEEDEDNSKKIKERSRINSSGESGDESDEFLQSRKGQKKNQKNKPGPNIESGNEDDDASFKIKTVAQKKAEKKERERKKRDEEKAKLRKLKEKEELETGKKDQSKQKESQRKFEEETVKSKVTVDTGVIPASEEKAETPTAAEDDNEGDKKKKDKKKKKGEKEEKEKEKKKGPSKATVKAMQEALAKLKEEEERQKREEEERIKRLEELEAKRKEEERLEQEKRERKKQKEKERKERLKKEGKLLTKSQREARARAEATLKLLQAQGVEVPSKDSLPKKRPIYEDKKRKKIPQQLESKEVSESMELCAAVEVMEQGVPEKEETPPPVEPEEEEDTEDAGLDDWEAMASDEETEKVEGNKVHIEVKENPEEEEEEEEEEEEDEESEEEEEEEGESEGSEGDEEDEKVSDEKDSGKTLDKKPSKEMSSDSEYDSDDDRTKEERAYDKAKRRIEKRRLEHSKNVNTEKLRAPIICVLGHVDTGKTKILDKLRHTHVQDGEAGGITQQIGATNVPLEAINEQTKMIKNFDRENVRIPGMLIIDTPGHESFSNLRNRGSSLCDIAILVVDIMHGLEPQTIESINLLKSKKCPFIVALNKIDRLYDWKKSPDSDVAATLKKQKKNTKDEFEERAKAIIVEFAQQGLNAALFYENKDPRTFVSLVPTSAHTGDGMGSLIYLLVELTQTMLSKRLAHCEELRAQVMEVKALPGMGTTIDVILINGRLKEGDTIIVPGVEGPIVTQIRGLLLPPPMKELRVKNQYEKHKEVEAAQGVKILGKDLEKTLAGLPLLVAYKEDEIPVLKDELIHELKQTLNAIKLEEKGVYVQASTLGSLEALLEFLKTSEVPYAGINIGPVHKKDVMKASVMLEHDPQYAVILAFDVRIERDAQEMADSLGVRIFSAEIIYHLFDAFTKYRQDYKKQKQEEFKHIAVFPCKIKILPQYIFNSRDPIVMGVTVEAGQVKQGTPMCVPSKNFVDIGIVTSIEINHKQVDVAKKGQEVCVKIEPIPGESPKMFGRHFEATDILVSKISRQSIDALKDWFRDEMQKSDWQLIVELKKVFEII

G protein-coupled receptor kinase 6, sequence (P43250 whole entry): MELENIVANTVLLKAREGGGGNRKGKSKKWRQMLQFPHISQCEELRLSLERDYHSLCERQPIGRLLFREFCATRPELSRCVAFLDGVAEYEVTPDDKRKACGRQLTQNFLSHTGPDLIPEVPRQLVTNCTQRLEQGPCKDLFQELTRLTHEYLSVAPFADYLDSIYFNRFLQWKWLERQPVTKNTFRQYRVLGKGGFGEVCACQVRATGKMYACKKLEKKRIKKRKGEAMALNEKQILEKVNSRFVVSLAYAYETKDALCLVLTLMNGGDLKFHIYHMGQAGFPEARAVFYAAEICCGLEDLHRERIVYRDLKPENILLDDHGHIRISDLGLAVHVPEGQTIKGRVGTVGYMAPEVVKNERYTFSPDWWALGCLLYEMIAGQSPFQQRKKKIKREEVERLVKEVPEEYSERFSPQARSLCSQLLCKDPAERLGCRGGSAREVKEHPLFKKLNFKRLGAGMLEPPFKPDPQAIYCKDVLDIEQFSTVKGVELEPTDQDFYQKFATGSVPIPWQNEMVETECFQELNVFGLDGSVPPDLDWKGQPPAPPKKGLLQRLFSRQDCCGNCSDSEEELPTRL
Hepatocyte growth factor receptor, sequence (P08581 whole entry): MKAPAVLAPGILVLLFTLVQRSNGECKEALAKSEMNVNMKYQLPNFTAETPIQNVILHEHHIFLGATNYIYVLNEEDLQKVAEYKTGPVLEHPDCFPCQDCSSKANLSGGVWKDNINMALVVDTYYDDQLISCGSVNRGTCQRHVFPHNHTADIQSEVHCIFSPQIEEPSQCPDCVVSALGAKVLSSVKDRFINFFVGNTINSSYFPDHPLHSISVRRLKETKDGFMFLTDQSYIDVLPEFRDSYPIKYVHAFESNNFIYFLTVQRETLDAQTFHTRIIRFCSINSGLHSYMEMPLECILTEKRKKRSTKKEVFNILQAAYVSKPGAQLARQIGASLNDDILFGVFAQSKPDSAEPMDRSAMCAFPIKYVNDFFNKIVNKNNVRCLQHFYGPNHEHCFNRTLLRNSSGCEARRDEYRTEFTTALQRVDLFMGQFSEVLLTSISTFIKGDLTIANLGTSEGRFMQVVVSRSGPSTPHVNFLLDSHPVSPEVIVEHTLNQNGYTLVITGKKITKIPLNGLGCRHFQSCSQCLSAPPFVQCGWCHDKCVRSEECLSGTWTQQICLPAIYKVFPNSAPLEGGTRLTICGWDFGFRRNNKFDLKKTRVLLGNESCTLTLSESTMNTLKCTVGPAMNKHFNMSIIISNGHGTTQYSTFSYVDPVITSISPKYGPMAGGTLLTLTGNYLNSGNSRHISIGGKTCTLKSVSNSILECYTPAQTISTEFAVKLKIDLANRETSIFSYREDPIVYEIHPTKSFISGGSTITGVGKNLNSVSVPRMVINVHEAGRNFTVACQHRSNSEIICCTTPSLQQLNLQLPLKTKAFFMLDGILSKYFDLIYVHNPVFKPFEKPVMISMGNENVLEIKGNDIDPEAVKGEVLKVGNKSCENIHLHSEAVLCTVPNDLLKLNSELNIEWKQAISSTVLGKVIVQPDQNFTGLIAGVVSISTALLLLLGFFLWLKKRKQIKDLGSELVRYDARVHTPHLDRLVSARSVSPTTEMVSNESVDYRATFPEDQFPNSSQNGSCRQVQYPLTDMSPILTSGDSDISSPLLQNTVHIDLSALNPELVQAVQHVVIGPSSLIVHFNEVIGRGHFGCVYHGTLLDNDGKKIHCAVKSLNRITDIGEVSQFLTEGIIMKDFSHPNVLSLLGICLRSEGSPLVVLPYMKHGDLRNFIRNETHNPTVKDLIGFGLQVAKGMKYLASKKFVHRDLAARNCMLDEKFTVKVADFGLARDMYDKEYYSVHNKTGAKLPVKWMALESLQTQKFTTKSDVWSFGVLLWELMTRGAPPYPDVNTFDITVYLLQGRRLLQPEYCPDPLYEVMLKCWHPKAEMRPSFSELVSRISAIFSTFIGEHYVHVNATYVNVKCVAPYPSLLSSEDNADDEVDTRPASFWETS
Tyrosine-protein kinase Lck, sequence (P06239 whole entry): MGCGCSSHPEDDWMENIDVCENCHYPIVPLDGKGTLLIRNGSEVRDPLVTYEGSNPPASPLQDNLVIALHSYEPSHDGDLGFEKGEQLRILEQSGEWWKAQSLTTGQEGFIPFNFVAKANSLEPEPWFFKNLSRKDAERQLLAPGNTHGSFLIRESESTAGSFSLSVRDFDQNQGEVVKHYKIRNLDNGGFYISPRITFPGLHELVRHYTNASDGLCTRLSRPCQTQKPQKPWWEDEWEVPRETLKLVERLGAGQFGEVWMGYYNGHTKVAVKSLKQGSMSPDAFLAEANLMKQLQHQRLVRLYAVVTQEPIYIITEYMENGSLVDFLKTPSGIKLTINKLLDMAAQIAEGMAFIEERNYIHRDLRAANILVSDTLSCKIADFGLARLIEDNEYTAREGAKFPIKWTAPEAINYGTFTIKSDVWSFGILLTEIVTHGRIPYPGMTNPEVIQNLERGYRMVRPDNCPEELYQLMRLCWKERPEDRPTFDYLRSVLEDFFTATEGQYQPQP

| SMILES | Kd [1] | Kd [2] | Kd [3] | Kd [4] | Kd [5] |
| --- | --- | --- | --- | --- | --- |
| Cn1cc(-c2[nH]c3cc(NC(=O)[C@H](N)C4CCCCC4)cc4c3c2C=NNC4=O)cn1 | > 30 µM (inactive) | 1.38 µM (active) | 0.036 µM | > 30 µM (inactive) |  |
| CCN1CCN(Cc2ccc(Nc3ncc(F)c(-c4cc(F)c5nc(C)n(C(C)C)c5c4)n3)nc2)CC1 [ABEMACICLIB] |  | > 30 µM (inactive) | > 30 µM (inactive) | > 30 µM (inactive) | > 30 µM (inactive) |
| Cc1c(NC(=O)OC[C@@H]2COCCN2)cn2ncnc(Nc3ccc4c(cnn4Cc4cccc(F)c4)c3)c12 [AC-480] |  | > 30 µM (inactive) | > 30 µM (inactive) | > 30 µM (inactive) |  |
| COc1ccc2c(OCc3nnc4ccc(-c5ccccc5)nn34)ccnc2c1 [AMG-208] | > 30 µM (inactive) | > 30 µM (inactive) | > 30 µM (inactive) | 0.028 µM (active) | > 30 µM (inactive) |
| S=C(NCc1ccc2c(c1)OCO2)N1CCN(c2ncnc3c2oc2ccccc23)CC1 [AMUVATINIB] | > 30 µM (inactive) | > 30 µM (inactive) | > 30 µM (inactive) | > 30 µM (inactive) | > 30 µM (inactive) |
| CCN(CCCOc1ccc2c(Nc3cc(CC(=O)Nc4cccc(F)c4)n[nH]3)ncnc2c1)CCOP(=O)(O)O [BARASERTIB] |  |  |  |  | > 30 µM (inactive) |
| COc1ccc(-c2ccc3ncc4c(c3c2)n(-c2ccc(N3CCNCC3)c(C(F)(F)F)c2)c(=O)n4C)cn1 [BGT-226 FREE BASE] | > 30 µM (inactive) | > 30 µM (inactive) | > 30 µM (inactive) | > 30 µM (inactive) | > 30 µM (inactive) |
| COc1cccc(Nc2ncnn3ccc(CN4CC[C@@H](N)[C@H](O)C4)c23)c1 [BMS-690514] |  | 0.514 µM (active) | > 30 µM (inactive) |  |  |
| C[C@@]1(C(=O)Nc2ccc(F)nc2)CCCN1c1nc(Nc2cc(C3CC3)n[nH]2)c2cccn2n1 [BMS-754807] | > 30 µM (inactive) |  |  |  | > 30 µM (inactive) |
| CCOc1ccn(-c2ccc(F)cc2)c(=O)c1C(=O)Nc1ccc(Oc2ccnc(N)c2Cl)c(F)c1 [BMS-777607] |  |  | > 30 µM (inactive) | 0.011 µM (active) | > 30 µM (inactive) |
| c1cc(OCCN2CCCCC2)cc(-c2n[nH]c3ccc(-c4nc[nH]n4)cc23)c1 [CC-401] | > 30 µM (inactive) | > 30 µM (inactive) | > 30 µM (inactive) | > 30 µM (inactive) |  |
| COc1cc2c(Oc3ccc4[nH]c(C)cc4c3F)ncnc2cc1OCCCN1CCCC1 [CEDIRANIB] | > 30 µM (inactive) |  |  |  | > 30 µM (inactive) |
| COc1cc2ncnc(Nc3ccc(F)c(Cl)c3)c2cc1NC(=O)/C=C/CN1CCCCC1 [DACOMITINIB ANHYDROUS] | > 30 µM (inactive) | > 30 µM (inactive) | > 30 µM (inactive) | > 30 µM (inactive) | > 30 µM (inactive) |
| CNC(=O)c1ccc(Nc2ncc(C(F)(F)F)c(NCc3nccnc3N(C)S(C)(=O)=O)n2)cc1 [DEFACTINIB] | > 30 µM (inactive) | > 30 µM (inactive) | > 30 µM (inactive) | > 30 µM (inactive) |  |
| COc1cc(Nc2ncc(F)c(Nc3ccc4c(n3)N(COP(=O)(O)O)C(=O)C(C)(C)O4)n2)cc(OC)c1OC [FOSTAMATINIB] |  | > 30 µM (inactive) | > 30 µM (inactive) | > 30 µM (inactive) |  |
| Cc1c(Cn2c(C)nc3c(C(=O)O)cc(N4CCOCC4)cc32)cccc1C(F)(F)F [GSK-2636771] | > 30 µM (inactive) | > 30 µM (inactive) | > 30 µM (inactive) | > 30 µM (inactive) |  |
| C[C@]1(O)C[C@@H](c2nc(-c3ccc4ccc(-c5ccccc5)nc4c3)c3c(N)nccn32)C1 [LINSITINIB] | > 30 µM (inactive) |  | > 30 µM (inactive) |  | > 30 µM (inactive) |

| SMILES | Kd [1] | Kd [2] | Kd [3] | Kd [4] | Kd [5] |
| --- | --- | --- | --- | --- | --- |
| Cc1ccc(C(=O)Nc2ccc(Oc3cc4cnn(C)c4cc3-c3cn[nH]c3)c(F)c2)c(=O)n1-c1ccc(F)cc1 [MERESTINIB] | > 30 µM (inactive) | > 30 µM (inactive) | > 30 µM (inactive) |  | > 30 µM (inactive) |
| O=C(NOC[C@H](O)CO)c1ccc(F)c(F)c1Nc1ccc(I)cc1F [MIRDAMETINIB] | > 30 µM (inactive) | > 30 µM (inactive) | > 30 µM (inactive) | > 30 µM (inactive) | > 30 µM (inactive) |
| O=C(Nc1ccc(OC(F)(F)F)cc1)c1sccc1NCc1ccnc2ccccc12 [OSI-930] | > 30 µM (inactive) | > 30 µM (inactive) | > 30 µM (inactive) | > 30 µM (inactive) | > 30 µM (inactive) |
| FC(F)(F)c1ccc(CNc2ccc(Cc3c[nH]c4ncc(Cl)cc34)cn2)cn1 [PEXIDARTINIB] | > 30 µM (inactive) | > 30 µM (inactive) | > 30 µM (inactive) | > 30 µM (inactive) |  |
| CN(c1ncccc1CNc1nc(Nc2ccc3c(c2)CC(=O)N3)ncc1C(F)(F)F)S(C)(=O)=O [PF-00562271] |  |  |  |  | > 30 µM (inactive) |
| CC(C)CC(=O)Nc1[nH]nc2c1CN(C(=O)C1CCN(C)CC1)C2(C)C [PHA-793887] | > 30 µM (inactive) |  | > 30 µM (inactive) |  | > 30 µM (inactive) |
| COCCN1CCN(Cc2ccc(-c3n[nH]c4c3C(=O)c3c(NC(=O)NN5CCOCC5)cccc3-4)cc2)CC1 [RGB-286638] |  | > 30 µM (inactive) | > 30 µM (inactive) | > 30 µM (inactive) | > 30 µM (inactive) |
| C=CC(=O)Nc1cccc(Nc2nc(Nc3ccc(N4CCN(C(C)=O)CC4)cc3OC)ncc2C(F)(F)F)c1 [ROCILETINIB] |  | > 30 µM (inactive) |  |  | > 30 µM (inactive) |
| Cn1cnc2c(F)c(Nc3ccc(Br)cc3Cl)c(C(=O)NOCCO)cc21 [SELUMETINIB] |  |  |  |  | > 30 µM (inactive) |
| O=C(O)c1ccc2c(c1)nc(Nc1cccc(Cl)c1)c1ccncc12 [SILMITASERTIB] |  | > 30 µM (inactive) |  | > 30 µM (inactive) |  |
| C=CCN(/C=C1/C(=O)O[C@H](COC)[C@@]2(C)C1=C(O)C(=O)C1=C2[C@H](OC(C)=O)C[C@]2(C)C(=O)CC[C@@H]12)CC=C [SONOLISIB] |  | > 30 µM (inactive) |  | > 30 µM (inactive) |  |
| CN1CCN(c2nc(C3=C(c4c[nH]c5ccccc45)C(=O)NC3=O)c3ccccc3n2)CC1 [SOTRASTAURIN] | > 30 µM (inactive) | > 30 µM (inactive) | > 30 µM (inactive) | > 30 µM (inactive) | > 30 µM (inactive) |
| Cc1cc(C(=O)Nc2cc(Oc3ccc4nc(NC(=O)C5CC5)cn4n3)ccc2C)n(C)n1 [TAK-593] | > 30 µM (inactive) | > 30 µM (inactive) | > 30 µM (inactive) | > 30 µM (inactive) |  |
| COc1cc2c(N3CCN(C(=O)Nc4ccc(OC(C)C)cc4)CC3)ncnc2cc1OCCCN1CCCCC1 [TANDUTINIB] | > 30 µM (inactive) |  |  |  | > 30 µM (inactive) |
| O[C@H]1CC[C@H](Nc2ncc3nc(Nc4c(F)cc(F)cc4F)n([C@H]4CCOC4)c3n2)CC1 [TANZISERTIB] |  | > 30 µM (inactive) | > 30 µM (inactive) | > 30 µM (inactive) | > 30 µM (inactive) |
| Cc1cc(-c2cc(OC(=O)c3ccccc3)ccc2Cl)cc2nnc(Nc3ccc(OCCN4CCCC4)cc3)nc12 [TG100-801] |  | 1.47 µM (active) | > 30 µM (inactive) | > 30 µM (inactive) |  |
